Source: ChEMBL document CHEMBL5247623, “The SAR and action mechanisms of autophagy inhibitors that eliminate drug resistance” (Eur J Med Chem, 2022)

Columns and labels:
[1] = target: T1, Serine/threonine-protein kinase ULK1 (Homo sapiens, UniProt O75385); assay: Inhibition of ULK1 (unknown origin)
T1 sequence (O75385 whole entry): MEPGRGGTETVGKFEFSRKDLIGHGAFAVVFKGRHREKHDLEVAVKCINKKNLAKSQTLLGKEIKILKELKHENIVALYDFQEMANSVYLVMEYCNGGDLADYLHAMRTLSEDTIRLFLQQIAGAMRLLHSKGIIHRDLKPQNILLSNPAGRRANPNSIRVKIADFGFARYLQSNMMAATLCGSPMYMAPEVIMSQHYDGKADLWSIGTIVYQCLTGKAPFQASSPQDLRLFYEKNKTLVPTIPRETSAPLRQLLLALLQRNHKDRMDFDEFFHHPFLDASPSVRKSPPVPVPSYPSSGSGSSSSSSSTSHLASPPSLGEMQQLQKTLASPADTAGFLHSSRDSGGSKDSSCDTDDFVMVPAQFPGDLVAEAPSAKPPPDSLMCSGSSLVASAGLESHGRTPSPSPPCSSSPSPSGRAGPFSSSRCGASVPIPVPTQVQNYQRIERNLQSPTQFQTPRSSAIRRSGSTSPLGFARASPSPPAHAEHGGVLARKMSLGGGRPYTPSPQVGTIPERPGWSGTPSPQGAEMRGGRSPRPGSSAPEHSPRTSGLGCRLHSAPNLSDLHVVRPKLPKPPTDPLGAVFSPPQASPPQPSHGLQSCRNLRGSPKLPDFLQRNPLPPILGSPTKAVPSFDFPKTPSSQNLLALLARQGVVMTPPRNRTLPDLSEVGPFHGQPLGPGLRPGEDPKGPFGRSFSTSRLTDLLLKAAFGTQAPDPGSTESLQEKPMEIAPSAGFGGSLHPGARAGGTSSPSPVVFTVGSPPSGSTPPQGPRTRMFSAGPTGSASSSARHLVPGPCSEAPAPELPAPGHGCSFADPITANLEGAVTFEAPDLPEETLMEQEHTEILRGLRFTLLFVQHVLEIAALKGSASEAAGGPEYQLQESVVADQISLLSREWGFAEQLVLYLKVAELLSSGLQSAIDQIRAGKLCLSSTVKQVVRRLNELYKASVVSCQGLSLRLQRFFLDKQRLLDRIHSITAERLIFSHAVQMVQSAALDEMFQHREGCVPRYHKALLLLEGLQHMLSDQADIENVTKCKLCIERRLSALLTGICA

[2] = target: T2, Serine/threonine-protein kinase ULK2 (Homo sapiens, UniProt Q8IYT8); assay: Inhibition of ULK2 (unknown origin)
T2 sequence (Q8IYT8 whole entry): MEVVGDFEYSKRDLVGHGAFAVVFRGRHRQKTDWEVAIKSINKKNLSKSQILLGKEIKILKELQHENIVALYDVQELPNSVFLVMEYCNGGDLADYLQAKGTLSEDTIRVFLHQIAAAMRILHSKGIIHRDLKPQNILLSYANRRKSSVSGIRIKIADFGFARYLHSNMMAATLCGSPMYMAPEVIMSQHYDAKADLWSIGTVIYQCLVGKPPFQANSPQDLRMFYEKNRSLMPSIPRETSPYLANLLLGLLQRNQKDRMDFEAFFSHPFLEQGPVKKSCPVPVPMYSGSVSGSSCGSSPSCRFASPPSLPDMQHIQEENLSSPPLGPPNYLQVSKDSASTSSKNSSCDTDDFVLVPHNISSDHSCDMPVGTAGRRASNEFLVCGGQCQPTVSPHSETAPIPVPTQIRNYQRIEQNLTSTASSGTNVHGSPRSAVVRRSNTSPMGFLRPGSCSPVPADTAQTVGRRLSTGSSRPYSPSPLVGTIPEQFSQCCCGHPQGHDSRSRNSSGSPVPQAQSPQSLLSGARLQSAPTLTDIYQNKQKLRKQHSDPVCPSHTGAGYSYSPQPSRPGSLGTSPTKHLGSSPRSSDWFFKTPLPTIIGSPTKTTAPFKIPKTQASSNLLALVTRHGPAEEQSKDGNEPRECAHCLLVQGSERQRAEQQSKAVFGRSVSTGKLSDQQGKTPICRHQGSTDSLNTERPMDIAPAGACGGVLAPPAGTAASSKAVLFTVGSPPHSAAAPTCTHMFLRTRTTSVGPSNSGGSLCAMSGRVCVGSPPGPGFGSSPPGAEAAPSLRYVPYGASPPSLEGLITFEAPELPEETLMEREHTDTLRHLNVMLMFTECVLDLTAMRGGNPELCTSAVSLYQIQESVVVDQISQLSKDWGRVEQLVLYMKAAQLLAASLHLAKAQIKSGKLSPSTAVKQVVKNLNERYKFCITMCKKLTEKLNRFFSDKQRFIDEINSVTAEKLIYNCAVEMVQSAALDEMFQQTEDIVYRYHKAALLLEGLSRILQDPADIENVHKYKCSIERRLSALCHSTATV

[3] = Inhibition of bafilomycin induced autophagic flux in mouse embryonic fibroblast cells assessed as fold change in LC3-II levels at 1 uM incubated for 1 hr by immunoblot analysis relative to control; type: functional
BT-474 = assay: Inhibition of autophagy in human BT-474 cells; type: functional, cell-based
[4] = target: AMP-activated protein kinase, AMPK; assay: Inhibition of rat AMPK; type: protein-complex assay
[5] = target: Phosphatidylinositol 4,5-bisphosphate 3-kinase catalytic subunit gamma isoform (Homo sapiens, UniProt P48736); assay: Inhibition of P13Kgamma (unknown origin)
[6] = Inhibition of V-ATPase (unknown origin); design: species or system Homo sapiens

Chain of Phosphatidylinositol 4,5-bisphosphate 3-kinase catalytic subunit gamma isoform (P48736 whole entry, canonical isoform): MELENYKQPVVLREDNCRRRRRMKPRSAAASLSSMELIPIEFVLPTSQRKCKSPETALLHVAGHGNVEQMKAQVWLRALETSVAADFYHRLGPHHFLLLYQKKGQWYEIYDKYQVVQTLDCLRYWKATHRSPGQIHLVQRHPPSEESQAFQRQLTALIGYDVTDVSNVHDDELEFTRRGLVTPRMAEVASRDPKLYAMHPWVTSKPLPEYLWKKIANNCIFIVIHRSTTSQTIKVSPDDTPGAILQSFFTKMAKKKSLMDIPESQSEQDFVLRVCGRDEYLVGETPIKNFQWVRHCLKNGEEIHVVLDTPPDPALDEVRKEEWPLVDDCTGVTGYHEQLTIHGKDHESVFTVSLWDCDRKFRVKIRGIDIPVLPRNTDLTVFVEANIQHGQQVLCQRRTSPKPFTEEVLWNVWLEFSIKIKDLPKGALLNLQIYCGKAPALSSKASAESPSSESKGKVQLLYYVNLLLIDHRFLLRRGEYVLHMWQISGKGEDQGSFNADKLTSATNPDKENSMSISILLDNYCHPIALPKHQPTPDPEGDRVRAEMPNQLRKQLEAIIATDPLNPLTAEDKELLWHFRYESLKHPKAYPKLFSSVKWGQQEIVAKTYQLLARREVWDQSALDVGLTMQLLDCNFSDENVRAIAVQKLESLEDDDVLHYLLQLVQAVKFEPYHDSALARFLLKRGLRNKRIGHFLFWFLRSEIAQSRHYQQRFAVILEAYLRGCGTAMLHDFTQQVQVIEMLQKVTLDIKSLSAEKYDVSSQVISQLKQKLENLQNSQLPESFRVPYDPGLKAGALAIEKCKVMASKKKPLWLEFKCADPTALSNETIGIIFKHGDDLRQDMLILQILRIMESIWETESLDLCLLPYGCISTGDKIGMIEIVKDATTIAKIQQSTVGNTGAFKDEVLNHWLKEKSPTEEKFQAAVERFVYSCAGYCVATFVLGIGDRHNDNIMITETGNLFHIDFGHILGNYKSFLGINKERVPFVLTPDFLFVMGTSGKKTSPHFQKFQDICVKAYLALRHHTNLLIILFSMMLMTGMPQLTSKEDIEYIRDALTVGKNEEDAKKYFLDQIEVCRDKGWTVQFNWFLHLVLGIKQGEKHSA

O=C(NCCCNc1nc(Nc2cccc(CN3CCOCC3)c2)ncc1C1CC1)C1CC1
IC50 [1]: 2.9 nM | IC50 [2]: 1.1 nM | fold change (FC) [3]: 2

CN1CCN(Cc2cc(CNC3(c4ccccc4F)CCCC3)ccc2O)CC1
EC50 (BT-474; read-out: EC50): 9500 nM

c1cc(-c2cnn3cc(-c4ccc(OCCN5CCCCC5)cc4)cnc23)ccn1 [DORSOMORPHIN]
IC50 [4]: 1280 nM

Cn1cnc(N)c2ncnc1-2 [3-METHYLADENINE]
IC50 [5]: 60000 nM

CCN(CC)CCCC(C)Nc1ccnc2cc(Cl)ccc12 (centres undefined) [CHLOROQUINE]
EC50 (BT-474): 4800 nM

CCN(CC)CCNC(=O)c1c(C)[nH]c(/C=C2\C(=O)Nc3ccc(F)cc32)c1C [SUNITINIB]
IC50 [4]: 62 nM

CO/C1=C\C(C)=C\[C@@H](C)[C@@H](O)[C@@H](C)C/C(C)=C/C=C/[C@H](OC)[C@@H]([C@@H](C)[C@@H](O)[C@H](C)[C@@]2(O)C[C@@H](O)[C@H](C)[C@@H](C(C)C)O2)OC1=O [BAFILOMYCIN A1]
IC50 [6]: 0.44 nM
